Measured values reported in US5834259A, “Process and composition for preparing D-aspartic acid” (Monsanto Company, priority 1996, dated 1998).

Target: T1, L-aspartate-α-decarboxylase (Escherichia coli, UniProt P0A790)
T1 construct: expressed in transfected cells; host or cells: E. coli W3110 transformed with pIF309 = strain NS3291 (ATCC 98675), whole cells
Assay: Activity towards D/L-glutamate and D/L-alanine, D/L-aspartate as control (Example 8)
Assay type: biochemical, E. coli K12
Conditions: racemate substrate, pH 7.0
Description: D/L-aspartate was run as a control.
Substrates were prepared by dissolving solid amino acid racemate in approximately 75 ml deionized H2 O and adjusting the pH to 7.0 with 10N NaOH. The volume was then brought to 100 ml with deionized H2 O. The cells used were stored frozen for about 1 month and then thawed and stored in a refrigerator for about 1 month prior to running the experiments.
The reaction was run the same as described in the prior Examples. Samples of supernatant fluid, approximately 0.20 ml, were removed over time, centrifuged and stored frozen before analysis by HPLC as described in the prior Examples.

| Structure (SMILES) | concentration in supernatant fluid (0 hr) | concentration in supernatant fluid (3.5 hr) | percent remaining (3.5 hr) | concentration in supernatant fluid (8.5 hr) | percent remaining (8.5 hr) | concentration in supernatant fluid (24 hr) | percent remaining (24 hr) | concentration in supernatant fluid (55 hr) | percent remaining (55 hr) |
| --- | --- | --- | --- | --- | --- | --- | --- | --- | --- |
| C[C@@H](N)C(=O)O [D-Ala] | 19.190 mg/mL | 18.590 mg/mL | 96.873% | 18.370 mg/mL | 95.727% | 17.930 mg/mL | 93.434% | 17.580 mg/mL | 91.610% |
| N[C@H](CCC(=O)O)C(=O)O [D-Glu] | 29.440 mg/mL | 29.010 mg/mL | 98.539% | 29.520 mg/mL | 100.27% | 29.350 mg/mL | 99.694% | 29.840 mg/mL | 101.36% |
| C[C@H](N)C(=O)O [L-Ala] | 19.320 mg/mL | 18.960 mg/mL | 98.137% | 18.730 mg/mL | 96.946% | 18.320 mg/mL | 94.824% | 17.830 mg/mL | 92.288% |
| N[C@@H](CCC(=O)O)C(=O)O [L-Glu] | 29.350 mg/mL | 28.400 mg/mL | 96.763% | 28.740 mg/mL | 97.922% | 28.200 mg/mL | 96.082% | 28.000 mg/mL | 95.400% |
